The target in one assay is Kir6.2*,C166S-GFP + SUR1 (Homo sapiens, UniProt Q14654, C166S). Description: Current inhibition in excised inside-out patches (patch-clamp fluorometry).
The target in a further assay is T1, Kir6.2*,G334D-GFP + SUR1 (Homo sapiens, UniProt Q14654, G334D).
T1 construct: ANAP labelling is specific and only full-length Kir6.2 is expressed at the cell membrane; expressed in transfected cells; host or cells: HEK-293T
Description: FRET (ANAP quenching) nucleotide binding in unroofed membranes. To be noted: Hill fit. From the text: To measure nucleotide binding, cells transfected with Kir6.2*-GFP + SUR1 were briefly sonicated, leaving behind unroofed plasma membrane fragments ([Heuser, 2000]; [Zagotta et al., 2016]; [Puljung et al., 2019]) containing ANAP-labelled KATP channels with the intracellular nucleotide-binding sites exposed to the bath solution. The sample was excited with a 385 nm LED and emitted fluorescence from the membrane fragments was passed through a spectrometer, allowing us to separate ANAP, GFP, and TNP-ATP fluorescence by peak wavelength (Figure 1E,F). As expected from FRET, increasing the concentration of TNP-ATP caused a decrement in the ANAP peak at 472 nm and a concomitant increase in the TNP-ATP peak at 561 nm (Figure 1F). We used the quenching of the ANAP peak as a direct measure of TNP-ATP binding as this signal was specific to KATP. In contrast, the peak TNP-ATP fluorescence may include contributions from both specific and non-specific nucleotide binding, as well as direct excitation of TNP-ATP in solution by the 385 nm excitation light. Due to the sharp cut-off of the GFP emission spectrum at shorter wavelengths, our measurements of peak ANAP fluorescence were unaffected by the presence of the GFP tag on Kir6.2. […]
Epifluorescence imaging and spectroscopy were performed using a Nikon Eclipse TE2000-U microscope with a 60x water immersion objective (Plan Apo VC, NA = 1.2, Nikon; Kingston upon Thames, UK) or a 100x oil immersion objective (Nikon, Apo TIRF, NA = 1.49). […] Fluorescence spectra were collected by exciting ANAP as above but using a 400 nm long-pass emission filter (ThorLabs), then passing emitted light through an IsoPlane 160 Spectrometer (Princeton Instruments; Trenton, NJ) with a 300 grooves mm^-1 grating. […]
Unroofed membranes were prepared as described previously ([Heuser, 2000]; [Zagotta et al., 2016]; [Puljung et al., 2019]). […] Unroofed membrane fragments were nearly invisible in bright-field images and identified by their GFP and ANAP fluorescence. […]

In a further assay the target is T2, Kir6.2*-GFP + SUR-K205E (Homo sapiens, UniProt Q14654).
T2 construct: ANAP labelling is specific and only full-length Kir6.2 is expressed at the cell membrane; expressed in transfected cells; host or cells: HEK-293T
T2 sequence (Q14654 whole entry, stated change not applied): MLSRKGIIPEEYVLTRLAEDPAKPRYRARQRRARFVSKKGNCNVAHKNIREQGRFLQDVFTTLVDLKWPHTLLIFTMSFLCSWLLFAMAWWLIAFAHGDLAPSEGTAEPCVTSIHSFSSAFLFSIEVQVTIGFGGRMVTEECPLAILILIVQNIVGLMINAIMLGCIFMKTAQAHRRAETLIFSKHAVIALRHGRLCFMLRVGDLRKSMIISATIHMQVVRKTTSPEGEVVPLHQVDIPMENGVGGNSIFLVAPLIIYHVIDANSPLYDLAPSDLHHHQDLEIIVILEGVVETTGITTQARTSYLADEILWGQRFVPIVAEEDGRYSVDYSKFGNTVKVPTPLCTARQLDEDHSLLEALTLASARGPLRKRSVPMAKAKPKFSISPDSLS
T2 sequence (Q09428 whole entry K205E partner): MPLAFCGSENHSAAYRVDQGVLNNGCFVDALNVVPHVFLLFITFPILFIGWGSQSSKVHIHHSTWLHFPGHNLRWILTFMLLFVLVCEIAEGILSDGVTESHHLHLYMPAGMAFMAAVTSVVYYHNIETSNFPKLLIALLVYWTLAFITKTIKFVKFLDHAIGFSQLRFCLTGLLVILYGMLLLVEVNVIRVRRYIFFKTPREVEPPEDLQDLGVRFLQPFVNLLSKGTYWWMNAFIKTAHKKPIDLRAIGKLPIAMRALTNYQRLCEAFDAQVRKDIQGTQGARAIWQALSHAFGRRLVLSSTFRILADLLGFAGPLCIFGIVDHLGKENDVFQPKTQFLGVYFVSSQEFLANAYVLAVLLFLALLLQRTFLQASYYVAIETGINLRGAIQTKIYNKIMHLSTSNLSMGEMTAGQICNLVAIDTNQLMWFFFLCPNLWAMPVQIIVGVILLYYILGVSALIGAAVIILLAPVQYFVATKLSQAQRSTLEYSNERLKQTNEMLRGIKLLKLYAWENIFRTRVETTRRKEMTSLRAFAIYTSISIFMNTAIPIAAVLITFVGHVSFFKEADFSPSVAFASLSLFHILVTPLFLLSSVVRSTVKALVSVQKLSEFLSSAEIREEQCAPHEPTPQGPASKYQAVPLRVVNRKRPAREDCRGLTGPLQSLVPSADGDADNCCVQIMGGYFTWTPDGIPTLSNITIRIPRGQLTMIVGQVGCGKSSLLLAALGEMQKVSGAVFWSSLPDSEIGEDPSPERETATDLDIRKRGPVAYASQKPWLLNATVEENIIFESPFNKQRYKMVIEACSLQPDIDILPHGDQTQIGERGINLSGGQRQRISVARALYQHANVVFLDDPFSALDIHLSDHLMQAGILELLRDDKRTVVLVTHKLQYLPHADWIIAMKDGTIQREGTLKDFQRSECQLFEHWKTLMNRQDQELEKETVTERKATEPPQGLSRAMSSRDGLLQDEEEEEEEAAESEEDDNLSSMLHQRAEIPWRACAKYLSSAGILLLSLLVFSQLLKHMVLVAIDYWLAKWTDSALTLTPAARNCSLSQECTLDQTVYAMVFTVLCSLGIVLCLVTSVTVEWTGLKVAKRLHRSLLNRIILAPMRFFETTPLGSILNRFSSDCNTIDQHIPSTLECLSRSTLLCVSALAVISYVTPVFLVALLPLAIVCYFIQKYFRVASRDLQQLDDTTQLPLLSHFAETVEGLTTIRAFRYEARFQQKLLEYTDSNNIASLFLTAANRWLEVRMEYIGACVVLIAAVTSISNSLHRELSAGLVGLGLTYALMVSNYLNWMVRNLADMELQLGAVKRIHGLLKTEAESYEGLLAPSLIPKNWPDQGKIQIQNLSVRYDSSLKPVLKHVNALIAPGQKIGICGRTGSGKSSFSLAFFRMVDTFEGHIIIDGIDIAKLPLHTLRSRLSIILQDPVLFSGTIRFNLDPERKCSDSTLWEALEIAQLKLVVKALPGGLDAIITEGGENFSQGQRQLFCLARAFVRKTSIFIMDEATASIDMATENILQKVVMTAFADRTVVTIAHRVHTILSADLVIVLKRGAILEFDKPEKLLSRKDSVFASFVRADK
The assay is described as follows: Current inhibition in excised inside-out patches (patch-clamp fluorometry). Format: biochemical. To be noted: Mg2+-free, Hill fit. From the text:
(§1) We introduced a charge neutralization (alanine, K205A) and a charge reversal (glutamate, K205E) mutation at this position and measured simultaneous nucleotide binding and current inhibition with PCF (Figure 4B,C,D). The binding and inhibition curves for TNP-ATP almost perfectly overlaid for the SUR1-K205A mutant (Figure 4C). The same was also true for SUR1-K205E (Figure 4D). Data were fit with the MWC-type model as before. […] This was reflected by a decrease in the estimated KA for TNP-ATP, which correlated with the degree of conservation of the mutation, that is we observed a larger effect for the charge reversal compared to the charge neutralization mutation (Figure 4E). However, in addition to direct effects of K205 on nucleotide binding, we also observed a shift in D for both mutations (Figure 4E).
(§2) Currents were measured as described above.

The next assay concerns the target T3, Kir6.2*-GFP + SUR-K205A (Homo sapiens, UniProt Q14654).
T3 construct: ANAP labelling is specific and only full-length Kir6.2 is expressed at the cell membrane; expressed in transfected cells; host or cells: HEK-293T
Described as above. It is filed as biochemical. As to conditions: Mg2+-free, Hill fit.
From the text: as §1, §2

Results on one compound are retold here after PMC7004565, “Nucleotide inhibition of the pancreatic ATP-sensitive K^+ channel explored with patch-clamp fluorometry” (eLife, 2020).

T1 sequence (Q14654 whole entry G334D): as the sequence (Q14654 whole entry, stated change not applied) above, with G334D counted along it
T1 sequence (Q09428 whole entry partner): as the sequence (Q09428 whole entry K205E partner) above, with E205K counted along it
Kir6.2*,C166S-GFP + SUR1, sequence (Q14654 whole entry C166S): as the sequence (Q14654 whole entry, stated change not applied) above, with C166S counted along it
Kir6.2*,C166S-GFP + SUR1, sequence (Q09428 whole entry partner): as the sequence (Q09428 whole entry K205E partner) above, with E205K counted along it
T3 sequence (Q14654 whole entry, stated change not applied): as the sequence (Q14654 whole entry, stated change not applied) above
T3 sequence (Q09428 whole entry K205A partner): as the sequence (Q09428 whole entry K205E partner) above, with E205A counted along it

Turning to `Nc1ncnc2c1ncn2[C@@H]1O[C@H](COP(=O)(O)OP(=O)(O)OP(=O)(O)O)[C@H]2OC3(O[C@H]21)C([N+](=O)[O-])=CC(=[N+]([O-])[O-])C=C3[N+](=O)[O-]` (stereo partly drawn) [TNP-ATP, trinitrophenyl-ATP], the IC50 on Kir6.2*,C166S-GFP + SUR1 was determined as 776 µM; at Kir6.2*-GFP + SUR-K205E (n = 9) it was 631 µM; at Kir6.2*-GFP + SUR-K205A (n = 9) it was 166 µM. Further, the “h (Hill coefficient) current inhibition” value at Kir6.2*,C166S-GFP + SUR1 (excised inside-out patches, Mg2+-free, Hill fit) is reported as 1.35; on Kir6.2*-GFP + SUR-K205E it was 0.79; at Kir6.2*-GFP + SUR-K205A, 0.75. Besides, at Kir6.2*,G334D-GFP + SUR1, the “h (Hill coefficient) fluorescence quenching” value amounted to 2.63. Moreover, on Kir6.2*,G334D-GFP + SUR1 (fraction, read-out: Emax fluorescence quenching), the maximal response (Emax) was 8%. The EC50 on Kir6.2*,G334D-GFP + SUR1 (n = 9, read-out: EC50 fluorescence quenching) stood at 493 µM.
